Columns and labels:
[1] = system: ERK2; test: Western blot for pERK or ERK in M2 cells; assay type: cell-based, mouse; conditions: 5 μM 20S for 1, 4, or 8 hours (FIG. 10A)
Experimental: (§1) Western blot analysis—After treatments, cells were lysed in lysis buffer, protein concentrations determined using the Bio-Rad protein assay (Hercules, Calif. U.S.A.), and SDS-PAGE performed as previously described. Probing for native and phosphorylated ERKs was performed as previously reported.
(§2) (A) M2 cells at confluence were pretreated for four hours with RPMI containing 1% FBS, followed by treatment with control vehicle or 5 μM 20S oxysterol for 1, 4, or 8 hours. Next total cell extracts were prepared and analyzed for levels of native or phosphorylated ERK (pERK) using specific antibodies as previously described. Data from a representative of four experiments are shown, each treatment shown in duplicate samples. (B) M2 cells at confluence were pretreated for 2 hours with control vehicle (C) or 20 μM PD98059 (PD) in osteogenic medium as previously described. Next, a combination of 22R and 20S oxysterols (RS, 5 μM each) were added to appropriate wells as indicated. After 10 days of incubation, matrix mineralization was quantified by the ^45Ca incorporation assay as previously described. Data from a representative of three experiments are reported as the mean±SD of quadruplicate determinations, normalized to protein concentration (p<0.01 for RS vs. RS+PD). […] After 10 days, adipocytes were visualized by oil Red O staining and quantified by light microscopy as previously described. […]

[2] = system: ERK1; test: Western blot for pERK or ERK in M2 cells; assay type: cell-based, mouse; conditions: 5 μM 20S for 1, 4, or 8 hours (FIG. 10A)
Experimental: as §1, §2

SMILES: CC(C)CCC[C@](C)(O)[C@H]1CC[C@H]2[C@@H]3CC=C4C[C@@H](O)CC[C@]4(C)[C@H]3CC[C@@]21C [20S, 20(S)-hydroxycholesterol]
- activation of ERK2 [1]: sustained activation
- activation of ERK1 [2]: sustained activation

From US9532994B2, “Agents and methods for enhancing bone formation by oxysterols in combination with bone morphogenic proteins” (THE REGENTS OF THE UNIVERSITY OF CALIFORNIA, priority 2003, dated 2017)
